Consider 35 compounds from patent publication US7485641B2, “Substituted 3-amino-pyrrolidino-4-lactams” (Pfizer, Inc., priority 2006, dated 2009).

The inhibition is the percentage by which the read-out fell short of the control. A word on the IC50: it is the concentration at which inhibition is half-maximal.

SMILES strings stand for the structures. Structures can show the parent of a compound that is named as a salt.

One assay deals with T1, DPP-IV (Homo sapiens, UniProt P27487).
T1 construct: purchased Enzyme Systems Products SPE-01
T1 sequence (P27487 whole entry, species assumed): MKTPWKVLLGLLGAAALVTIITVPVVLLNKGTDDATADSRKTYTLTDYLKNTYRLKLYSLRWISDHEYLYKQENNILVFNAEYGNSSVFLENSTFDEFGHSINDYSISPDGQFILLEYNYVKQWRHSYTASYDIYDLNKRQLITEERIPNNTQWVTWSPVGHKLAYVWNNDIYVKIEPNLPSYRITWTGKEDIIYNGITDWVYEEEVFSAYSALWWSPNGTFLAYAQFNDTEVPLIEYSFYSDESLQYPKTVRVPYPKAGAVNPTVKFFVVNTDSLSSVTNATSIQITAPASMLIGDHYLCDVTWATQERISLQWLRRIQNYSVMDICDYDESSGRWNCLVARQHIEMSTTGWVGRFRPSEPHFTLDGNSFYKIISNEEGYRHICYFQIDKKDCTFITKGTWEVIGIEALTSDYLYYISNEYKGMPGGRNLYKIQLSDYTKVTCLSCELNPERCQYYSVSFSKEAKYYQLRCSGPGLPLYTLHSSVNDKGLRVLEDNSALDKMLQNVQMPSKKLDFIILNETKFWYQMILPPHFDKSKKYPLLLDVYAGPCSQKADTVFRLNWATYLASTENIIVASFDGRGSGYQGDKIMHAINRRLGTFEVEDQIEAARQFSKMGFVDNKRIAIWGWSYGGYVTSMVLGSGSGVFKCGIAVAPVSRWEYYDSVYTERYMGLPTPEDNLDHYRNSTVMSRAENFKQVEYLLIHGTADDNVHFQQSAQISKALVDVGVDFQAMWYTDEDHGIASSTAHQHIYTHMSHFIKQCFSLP
As to the kind of experiment: In vitro assay for dipeptidyl peptidase inhibition. It is filed as biochemical. The settings on record: at 300 nM; n-value given in brackets.
In the case of `CC(Oc1cc(N2C[C@H](N)[C@@H](N3CCCCC3=O)C2)ncn1)C(F)(F)F.O=C(O)C(F)(F)F` (stereo partly drawn) [Example 93, 1-((3S,4S)-4-Amino-1-(6-(1,1,1-trifluoropropan-2-yloxy)pyrimidin-4-yl)pyrrolidin-3-yl)piperidin-2-onetrifluoroacetate], the “DPP-IV Percent Inhibition at 300 nM” value is given as 13.8%(4).

Staying with this assay, now noted: at 300 nM; n-value given in brackets; read-out: DPP-IV Percent Inhibition at 300 nM.
For the compound `N[C@H]1CN(c2cc(OCC(F)(F)F)ncn2)C[C@@H]1N1CCCCC1=O` [Example 92, 1-((3S,4S)-4-Amino-1-(6-(2,2,2-trifluoroethoxy)pyrimidin-4-yl)pyrrolidin-3-yl)piperidin-2-one trifluoroacetate], the inhibition at 0.3 µM came out at 28.9%. In the case of `N[C@H]1CN(c2cc(OCC(F)(F)C(F)F)ncn2)C[C@@H]1N1CCCCC1=O` [Example 94, 1-((3S,4S)-4-Amino-1-(6-(2,2,3,3-tetrafluoropropoxy)pyrimidin-4-yl)pyrrolidin-3-yl)piperidin-2-one trifluoroacetate], the inhibition at 0.3 µM worked out at 23.2%. Take `CC(C)C(C)Oc1cc(N2C[C@H](N)[C@@H](N3CCCCC3=O)C2)ncn1` (stereo partly drawn) [Example 95, 1-((3S,4S)-4-Amino-1-(6-(3-methylbutan-2-yloxy)pyrimidin-4-yl)pyrrolidin-3-yl)piperidin-2-one trifluoroacetate]: the inhibition at 0.3 µM turned out to be 17.7%. Still for that read-out and setting: the result for `COc1ccc2ncnc(N3C[C@H](N)[C@@H](N4CCCCC4=O)C3)c2c1` [Example 107, 1-((3S,4S)-4-amino-1-(6-methoxyquinazolin-4-yl)pyrrolidin-3-yl)piperidin-2-one] reads 47%.

The same assay, now with this note: n-value given in brackets; read-out: DPP-IV IC50.
As for `CS(=O)(=O)c1ccccc1S(=O)(=O)Oc1ccc2c(N3C[C@H](N)[C@@H](N4CCCCC4=O)C3)ncnc2c1` [Example 96, 4-((3S,4S)-3-amino-4-(2-oxopiperidin-1-Vl)pyrrolidin-1-yl)quinazolin-7-yl 2-(methylsulfonyl)benzenesulfonate], the half-maximal inhibitory concentration (IC50) came to 1.99 nM. For `CS(=O)(=O)c1ccccc1S(=O)(=O)Oc1ccc2c(N3C[C@H](N)[C@@H](N4CC(F)(F)CCC4=O)C3)ncnc2c1` [Example 97, 4-((3S,4S)-3-amino-4-(5,5-difluoro-2-oxopiperidin-1-yl)pyrrolidin-1-yl)quinazolin-7-yl 2-(methylsulfonyl)benzenesulfonate], the IC50 was less than 1 nM. With `COc1ccc2c(N3C[C@H](N)[C@@H](N4CC(F)(F)CCC4=O)C3)ncnc2c1` [Example 98, 1-((3S,4S)-4-amino-1-(7-methoxyquinazolin-4-yl)pyrrolidin-3-yl)-5,5-difluoropiperidin-2-one], the IC50 turned out to be 34.2 nM. Consider `CCSc1ccc2c(N3C[C@H](N)[C@@H](N4CC(F)(F)CCC4=O)C3)ncnc2c1` [Example 99, 1-((3S,4S)-4-amino-1-(7-(ethylthio)quinazolin-4-yl)pyrrolidin-3-yl)-5,5-difluoropiperidin-2-one], for which the IC50 amounted to 38.4 nM. With `CC(C)Oc1ccc2c(N3C[C@H](N)[C@@H](N4CC(F)(F)CCC4=O)C3)ncnc2c1` [Example 100, 1-((3S,4S)-4-amino-1-(7-isopropoxyquinazolin-4-yl)pyrrolidin-3-yl)-5,5-difluoropiperidin-2-one], the IC50 turned out to be 44.7 nM.

In the case of `N[C@H]1CN(c2ncnc3cc(Oc4ccccc4)ccc23)C[C@@H]1N1CC(F)(F)CCC1=O` [Example 101, 1-((3S,4S)-4-amino-1-(7-phenoxyquinazolin-4-yl)pyrrolidin-3-yl)-5,5-difluoropiperidin-2-one], the IC50 is 122 nM. Still for that read-out and setting: the value for `N[C@H]1CN(c2ncnc3cc(Cl)ccc23)C[C@@H]1N1CCCCC1=O` [Example 102, 1-[(3S,4S)-4-Amino-1-(7-chloro-quinazolin-4-yl)-pyrrolidin-3-yl]-piperidin-2-one hydrochloride] was 61.4 nM; that for `COc1ccc2c(N3C[C@H](N)[C@@H](N4CCCCC4=O)C3)ncnc2c1` [Example 103, 1-[(3S,4S)-4-Amino-1-(7-methoxy-quinazolin-4-yl)-pyrrolidin-3-yl]-piperidin-2-one hydrochloride] was 26.1 nM; that for `N[C@H]1CN(c2ncnc3ccc(Cl)cc23)C[C@@H]1N1CCCCC1=O` [Example 104, 1-[(3S,4S)-4-Amino-1-(6-chloro-quinazolin-4-yl)-pyrrolidin-3-yl]-piperidin-2-one hydrochloride] was 132 nM. As to `N[C@H]1CN(c2ncnc3cc(F)ccc23)C[C@@H]1N1CCCCC1=O` [Example 105, 1-((3S,4S)-4-Amino-1-(7-fluoroquinazolin-4-yl)pyrrolidin-3-yl)piperidin-2-one trifluoroacetate], the IC50 is 241 nM.

With `COc1cc2ncnc(N3C[C@H](N)[C@@H](N4CCCCC4=O)C3)c2cc1Cl` [Example 106, 1-((3S,4S)-4-Amino-1-(6-chloro-7-methoxyquinazolin-4-yl)pyrrolidin-3-yl)piperidin-2-one trifluoroacetate], the IC50 turned out to be 99.6 nM. In the case of `COc1cccc2c(N3C[C@H](N)[C@@H](N4CCCCC4=O)C3)ncnc12` [Example 108, 1-((3S,4S)-4-Amino-1-(8-methoxyquinazolin-4-yl)pyrrolidin-3-yl)piperidin-2-one trifluoroacetate], the IC50 was found to be 175 nM. For `N[C@H]1CN(c2ncnc3c(F)cccc23)C[C@@H]1N1CCCCC1=O` [Example 109, 1-((3S,4S)-Amino-1-(8-fluoroquinazolin-4-yl)pyrrolidin-3-yl)piperidin-2-one trifluoroacetate], the IC50 came out at 110 nM. On to `N[C@H]1CN(c2ncnc3cc(C(F)(F)F)ccc23)C[C@@H]1N1CCCCC1=O` [Example 110, 1-((3S,4S)-4-amino-1-(7-(trifluoromethyl)quinazolin-4-yl)pyrrolidin-3-yl)piperidin-2-one], for which the IC50 was 47.2 nM. With `N[C@H]1CN(c2ncnc3cc(C4CCCC4)ccc23)C[C@@H]1N1CCCCC1=O` [Example 111, 1-((3S,4S)-4-amino-1-(7-cyclopentylquinazolin-4-yl)pyrrolidin-3-yl)piperidin-2-one], the IC50 worked out at 228 nM. Still for that read-out and setting: the value for `N[C@H]1CN(c2ncnc3cc(Oc4ccccc4)ccc23)C[C@@H]1N1CCCCC1=O` [Example 113, 1-((3S,4S)-4-amino-1-(7-phenoxyquinazolin-4-yl)pyrrolidin-3-yl)piperidin-2-one] was 72.5 nM; that for `N[C@H]1CN(c2ncnc3cc(OCc4ccccc4)ccc23)C[C@@H]1N1CCCCC1=O` [Example 114, 1-((3S,4S)-4-amino-1-(7-(benzyloxy)quinazolin-4-yl)pyrrolidin-3-yl)piperidin-2-one] was 109 nM.

As to `CC(C)Oc1ccc2c(N3C[C@H](N)[C@@H](N4CCCCC4=O)C3)ncnc2c1` [Example 115, 1-((3S,4S)-4-amino-1-(7-isopropoxyquinazolin-4-yl)pyrrolidin-3-yl)piperidin-2-one], the half-inhibitory concentration (IC50) worked out at 29.7 nM. For the compound `CC(C)c1ccc2c(N3C[C@H](N)[C@@H](N4CCCCC4=O)C3)ncnc2c1` [Example 116, 1-((3S,4S)-4-amino-1-(7-isopropylquinazolin-4-yl)pyrrolidin-3-yl)piperidin-2-one], the IC50 came to 55.9 nM.

`CCC(CC)c1ccc2c(N3C[C@H](N)[C@@H](N4CCCCC4=O)C3)ncnc2c1` [Example 117, 1-((3S,4S)-4-amino-1-(7-(pentan-3-yl)quinazolin-4-yl)pyrrolidin-3-yl)piperidin-2-one]: the IC50 was 206 nM. The same measure, in the same setting: the value for `N#CCCc1ccc2c(N3C[C@H](N)[C@@H](N4CCCCC4=O)C3)ncnc2c1` [Example 118, 3-(4-((3S,4S)-3-amino-4-(2-oxopiperidin-1-yl)pyrrolidin-1-yl)quinazolin-7-yl)propanenitrile] was 85.2 nM; that for `N[C@H]1CN(c2ncnc3cc(OC4CCCC4)ccc23)C[C@@H]1N1CCCCC1=O` [Example 119, 1-((3S,4S)-4-amino-1-(7-(cyclopentyloxy)quinazolin-4-yl)pyrrolidin-3-yl)piperidin-2-one] was 107 nM; that for `N[C@H]1CN(c2ncnc3cc(Oc4cccc(F)c4)ccc23)C[C@@H]1N1CCCCC1=O` [Example 120, 1-((3S,4S)-4-amino-1-(7-(3-fluorophenoxy)quinazolin-4-yl)pyrrolidin-3-yl)piperidin-2-oneformate] was 79.8 nM.

Turning to `N#Cc1ccc(Oc2ccc3c(N4C[C@H](N)[C@@H](N5CCCCC5=O)C4)ncnc3c2)nc1` [Example 121, 6-(4-((3S,4S)-3-amino-4-(2-oxopiperidin-1-yl)pyrrolidin-1-yl)quinazolin-7-yloxy)nicotinonitrile], the IC50 stood at 183 nM. Turning to `N[C@H]1CN(c2ncnc3cc(OCC(F)(F)F)ccc23)C[C@@H]1N1CCCCC1=O` [Example 122, 1-((3S,4S)-4-amino-1-(7-(2,2,2-trifluoroethoxy)quinazolin-4-yl)pyrrolidin-3-yl)piperidin-2-one], the IC50 is 148 nM. `N[C@H]1CN(c2ncnc3cc(O)ccc23)C[C@@H]1N1CCCCC1=O` [Example 123, 1-((3S,4S)-4-amino-1-(7-hydroxyquinazolin-4-yl)pyrrolidin-3-yl)piperidin-2-one trifluoroacetate]: the IC50 was 113 nM. In the case of `N[C@H]1CN(c2ncnc3cc(OC(F)F)ccc23)C[C@@H]1N1CCCCC1=O` [Example 124, 1-((3S,4S)-4-amino-1-(7-(difluoromethoxy)quinazolin-4-yl)pyrrolidin-3-yl)piperidin-2-one], the IC50 came out at 33.2 nM. As for `N[C@H]1CN(c2ncnc3cc(OC4CCC4)ccc23)C[C@@H]1N1CCCCC1=O` [Example 125, 1-((3S,4S)-4-amino-1-(7-cyclobutoxyquinazolin-4-yl)pyrrolidin-3-yl)piperidin-2-one], the IC50 was found to be 101 nM.

For the compound `CC(C)(O)c1ccc2c(N3C[C@H](N)[C@@H](N4CCCCC4=O)C3)ncnc2c1` [Example 126, 1-((3S,4S)-4-amino-1-(7-(2-hydroxypropan-2-yl)quinazolin-4-yl)pyrrolidin-3-yl)piperidin-2-one], the IC50 worked out at 66.8 nM. As for `N[C@H]1CN(c2ncnc3cc(Oc4ccc(C(F)(F)F)cn4)ccc23)C[C@@H]1N1CCCCC1=O` [Example 127, 1-((3S,4S)-4-amino-1-(7-(5-(trifluoromethyl)pyridin-2-yloxy)quinazolin-4-yl)pyrrolidin-3-yl)piperidin-2-one], the IC50 is 137 nM.
